Test results as given in patent US10017506B2, “ATX modulating agents” (BIOGEN MA INC., priority 2012, dated 2018).

These molecules were tested against T1, Human ATX protein (Homo sapiens, UniProt Q13822) (assay: ATX biochemical FRET assay with FS-3 substrate). Conditions: FRET substrate FS-3 2 μM, ATX 1.0 μg/mL, 30 minutes pre-incubation, 2 hours at room temperature; read-out: IC50.
T1 construct: made in house
In short: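 Enzyme at 1.0 μg/mL final, pre-incubated with compound (10-point, 3-fold series) for 30 min at RT in Tris pH 7.4 buffer with NaCl, KCl, CaCl2, MgCl2 and 1 mg/mL fatty-acid-free BSA. After FS-3 addition, 2 h at RT protected from light; fluorescence at 485/538 nm.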
`CC[C@H]1CC[C@@H](Oc2ccc3ccc(C(C)NC45CCC(C(=O)O)(CC4)C5)cc3c2C(F)(F)F)CC1` (stereo partly drawn) [Example 130, 4-((1-(7-((cis-4-ethylcyclohexyl)oxy)-8-(trifluoromethyl)naphthalen-2-yl)ethyl)amino)bicyclo[2.2.1]heptane-1-carboxylic acid] was tested, and the IC50 was no more than 250 nM.
Work on `C[C@@H](N[C@H]1CC[C@@H](C(=O)O)CC1)c1ccc2ccc(O[C@H]3CC[C@@H](C(F)(F)F)CC3)c(C(F)(F)F)c2c1` [Example 136b, cis-4-(((R)-1-(8-(trifluoromethyl)-7-((cis-4-(trifluoromethyl)cyclohexyl)oxy)naphthalen-2-yl)ethyl)amino)cyclohexanecarboxylic acid] yielded an IC50 of no more than 250 nM.
Work on `CC(N[C@H]1C[C@@H](C(=O)O)C1(C)C)c1ccc2ccc(O[C@H]3CC[C@@H](C)CC3)c(Cl)c2c1` (relative stereo) [Example 93, Cis-3-((1-(8-chloro-7-((cis-4-methylcyclohexyl)oxy)naphthalen-2-yl)ethyl)amino)-2,2-dimethylcyclobutanecarboxylic acid] yielded an IC50 of no more than 250 nM.
Work on `C[C@H](N[C@H]1C[C@@H](C(=O)O)C1(C)C)c1ccc2ccc(O[C@H]3CC[C@@H](C)CC3)c(C(F)(F)F)c2c1` [Example 114b, (1R,3S)-2,2-dimethyl-3-(((S)-1-(7-((cis-4-methylcyclohexyl)oxy)-8-(trifluoromethyl)naphthalen-2-yl)ethyl)amino)cyclobutanecarboxylic acid] yielded an IC50 of no more than 100 nM.
In the case of `CC[C@H]1CC[C@@H](Oc2ccc3ccc([C@H](C)N[C@H]4C[C@@H](C(=O)O)C4(C)C)cc3c2C(F)(F)F)CC1` [Example 118b, (1R,3S)-3-(((S)-1-(7-((cis-4-ethylcyclohexyl)oxy)-8-(trifluoromethyl)naphthalen-2-yl)ethyl)amino)-2,2-dimethylcyclobutanecarboxylic acid], the IC50 is reported as no more than 100 nM.

Same assay, conditions: IC50, FRET substrate FS-3 2 μM, ATX 1.0 μg/mL, 30 minutes pre-incubation, 2 hours at room temperature
Molecule `CC(c1ccc2ccc(O[C@H]3CC[C@@H](C)CC3)c(C#N)c2c1)N1C2CCCC1CC(C(=O)O)C2` (stereo partly drawn) [Example 102, 9-(1-(8-cyano-7-((cis-4-methylcyclohexyl)oxy)naphthalen-2-yl)ethyl)-9-azabicyclo[3.3.1]nonane-3-carboxylic acid] has an IC50 of no more than 100 nM.
Molecule `CC(c1ccc2ccc(O[C@H]3CC[C@@H](C(F)(F)F)CC3)c(Cl)c2c1)N1C2CCCC1CC(C(=O)O)C2` (stereo partly drawn) [Example 30, 9-(1-(8-chloro-7-((cis-4-(trifluoromethyl)cyclohexyl)oxy)naphthalen-2-yl)ethyl)-9-azabicyclo[3.3.1]nonane-3-carboxylic acid] has an IC50 of no more than 250 nM.
In the case of `CCC(c1ccc2ccc(O[C@H]3CC[C@@H](C)CC3)c(C(F)(F)F)c2c1)N1C2CCCC1CC(C(=O)O)C2` (stereo partly drawn) [Example 104, 9-(1-(7-((cis-4-methylcyclohexyl)oxy)-8-(trifluoromethyl)naphthalen-2-yl)propyl)-9-azabicyclo[3.3.1]nonane-3-carboxylic acid], the IC50 is reported as no more than 250 nM.
In the case of `C[C@H]1CC[C@@H](Oc2ccc3ccc(CN4C5CCC4CC(C(=O)O)C5)cc3c2C#N)CC1` (stereo partly drawn) [Example 96, 8-((8-cyano-7-((cis-4-methylcyclohexyl)oxy)naphthalen-2-yl)methyl)-8-azabicyclo[3.2.1]octane-3-carboxylic acid], the IC50 is reported as no more than 250 nM.
Work on `CC(c1ccc2ccc(O[C@H]3CC[C@@H](C(F)(F)F)CC3)c(C#N)c2c1)N1C2CCC1CC(C(=O)O)C2` (stereo partly drawn) [Example 37, 8-(1-(8-cyano-7-((cis-4-(trifluoromethyl)cyclohexyl)oxy)naphthalen-2-yl)ethyl)-8-azabicyclo[3.2.1]octane-3-carboxylic acid] yielded an IC50 of no more than 100 nM.
`C[C@H]1CC[C@@H](Oc2ccc3ccc(CN4C5CCCC4CC(C(=O)O)C5)cc3c2Cl)CC1` (some centres unmarked) [Example 15, 9-[8-Chloro-7-(4-methyl-cyclohexyloxy)-naphthalen-2-ylmethyl]-9-aza-bicyclo[3.3.1]nonane-3-carboxylic acid] was tested, and the IC50 was no more than 100 nM.
`C[C@H]1CC[C@@H](Oc2ccc3ccc(C(=O)N4C5CCCC4CC(C(=O)O)C5)cc3c2C(F)(F)F)CC1` (some centres unmarked) [Example 13, 9-[7-(4-methyl-cyclohexyloxy)-8-trifluoromethyl-naphthalene-2-carbonyl]-9-aza-bicyclo [3.3.1]nonane-3-carboxylic acid] was tested, and the IC50 was no more than 500 nM.
Molecule `CC(C)[C@H]1CC[C@@H](Oc2ccc3ccc(CN4C5CCC4CC(C(=O)O)C5)cc3c2C(F)(F)F)CC1` (stereo partly drawn) [Example 107, 8-((7-((cis-4-isopropylcyclohexyl)oxy)-8-(trifluoromethyl)naphthalen-2-yl)methyl)-8-azabicyclo[3.2.1]octane-3-carboxylic acid] has an IC50 of no more than 100 nM.
In the case of `CC(c1ccc2ccc(O[C@H]3CC[C@@H](C(F)(F)F)CC3)c(C(F)F)c2c1)N1C2CCC1CC(C(=O)O)C2` (stereo partly drawn) [Example 42, 8-(1-(8-(difluoromethyl)-7-((cis-4-(trifluoromethyl)cyclohexyl)oxy)naphthalen-2-yl)ethyl)-8-azabicyclo[3.2.1]octane-3-carboxylic acid], the IC50 is reported as no more than 100 nM.
